Test results reported in patent publication US11970450B2, “Multi-component crystals of an orally available HIF prolyl hydroxylase inhibitor” (Sandoz AG, priority 2018, dated 2024).
Read-outs that look alike come from different tables or passages of the source.

Legend:
[1] = Thermal stability by differential scanning calorimetry (DSC); assay type: physicochemical; settings: for Thermal stability: Table 7 summary, temperature stress, DSC and TGA; for Thermal stability / DSC: thermal events / phase transformations before melting: 25 to 250° C. at 10 K/min; for DSC: thermal events / phase transformations before melting: nitrogen purge; for Physically stable toward temperature stress: no thermal events in DSC until start to melt at: DSC 10 K/min
Protocol: DSC was performed on a Mettler Polymer DSC R instrument. […] Nitrogen (purge rate 50 mL/min) was used as purge gas.

[2] = Thermogravimetric analysis (TGA) mass loss on heating; assay type: physicochemical; settings: 10 K/min
Protocol: TGA was performed on a Mettler TGA/DSC 1 instrument. The samples (9.53 mg Form 1 and 8.16 mg Form 2, 8.12 mg 1,4-dioxane solvate) were heated in a 100 microliter aluminum pan closed with an aluminum lid. The lid was automatically pierced at the beginning of the measurement. The samples were heated from 25 to 250° C. at a rate of 10 K/min. Nitrogen (purge rate 50 mL/min) was used as purge gas.
Also, no significant mass loss is visible in the TGA curves of Form 1 and Form 2 until they melt.

[3] = cited from earlier work
[4] = up to a temperature of about 170° C.

SMILES: C1COCCO1.O=C(O)CNC(=O)c1ncc(-c2cccc(Cl)c2)cc1O [Vadadustat 1,4-dioxane solvate, reference compound]
- DSC onset of first broad endothermic peak (release of 1,4-dioxane from the crystal structure) ([1]; 10 K/min): about 78 °C
- Thermal stability [1]: desolvation below 100 °C
- Temperature at which TGA mass loss starts [2]: about 40 °C
- TGA mass loss [2, 4]: about 19 weight %

SMILES: O=C(O)CNC(=O)c1ncc(-c2cccc(Cl)c2)cc1O [Vadadustat L-proline form 1, vadadustat L-proline]
- DSC: thermal events / phase transformations before melting ([1]; listed as vadadustat L-proline form 1): undergoes no desolvation or phase transformations but is stable until it melts
- Physically stable toward temperature stress: no thermal events in DSC until start to melt at ([1]; listed as Form 1): about 170 °C
- Thermal stability [1]: physically stable until melting at
- TGA mass loss [2, 4]: about 0.20 weight %

SMILES: O=C(O)CNC(=O)c1ncc(-c2cccc(Cl)c2)cc1O [Vadadustat L-proline form 2, vadadustat L-proline]
- DSC: thermal events / phase transformations before melting ([1]; listed as vadadustat L-proline form 2): undergoes no phase transformations but is stable until it melts
- Physically stable toward temperature stress: no thermal events in DSC until start to melt at ([1]; listed as Form 2): ~178 °C
- TGA mass loss ([2]; up to a temperature of about 180° C.): about 0.15 weight %

SMILES: O=C(O)CNC(=O)c1ncc(-c2cccc(Cl)c2)cc1O [Vadadustat hydrate]
- Thermal stability ([3]; Table 7 summary, hydrate of WO 2018/108101 A1, temperature stress): dehydration below 100 °C
- Physical stability upon temperature stress ([3]; background statement on hydrate CS2 of WO 2018/108101 A1): physically unstable upon temperature stress
